Patent US20250230154A1, “COMPOUND HAVING SHP2 PROTEIN DEGRADING ACTIVITY, AND MEDICAL USES THEREOF” (UBIX THERAPEUTICS, INC., priority 2021, published 2025)

Target: T1, SHP2 protein (Homo sapiens, UniProt Q06124)
T1 sequence (Q06124 1-593): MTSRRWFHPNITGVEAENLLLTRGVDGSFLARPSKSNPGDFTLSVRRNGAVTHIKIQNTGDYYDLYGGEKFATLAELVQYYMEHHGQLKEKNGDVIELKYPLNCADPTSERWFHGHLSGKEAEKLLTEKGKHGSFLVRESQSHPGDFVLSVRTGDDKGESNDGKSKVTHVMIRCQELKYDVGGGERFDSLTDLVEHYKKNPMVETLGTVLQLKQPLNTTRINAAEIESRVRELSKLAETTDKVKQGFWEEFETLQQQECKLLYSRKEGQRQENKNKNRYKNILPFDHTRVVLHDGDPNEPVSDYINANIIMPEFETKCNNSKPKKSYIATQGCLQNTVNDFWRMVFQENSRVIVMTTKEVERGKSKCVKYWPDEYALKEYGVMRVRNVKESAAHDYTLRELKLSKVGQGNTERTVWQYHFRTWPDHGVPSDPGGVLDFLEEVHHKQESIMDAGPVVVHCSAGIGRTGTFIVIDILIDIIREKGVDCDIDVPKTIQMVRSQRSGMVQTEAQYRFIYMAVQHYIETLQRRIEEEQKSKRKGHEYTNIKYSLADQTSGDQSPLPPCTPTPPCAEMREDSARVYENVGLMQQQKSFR
Assay: Measurement of SHP2 protein degradation in KYSE-520 cells (western blotting)
Type: cell-based
Design: endogenous in cells
Details: 24 hours
Experimental: Experimental Example 1: Measurement of SHP2 Protein Degradation in KYSE-520 Cells
KYSE-520 cells were treated with the synthesized Example compound, and the amount of SHP2 protein present in the cells was measured using western blotting detection. The protocol of the experiment conducted using KYSE-520 cells was as follows:
[Culture] KYSE-520 cells resuspended in RPMI1640 MEDIUM (Hyclone, SH30027.01) containing 5% FBS (Hyclone, SV30207.02) and 1% Penicillin-streptomycin (Welgene, LS 202-02) were seeded at a density of 2.5×10^5/well in a 6-well plate in an amount of 2 ml each and incubated for 2 days.
[Compound treatment] […] After 24 hours, cells were harvested. For the negative control group, DMSO diluted 1/10 to the media (3 mL DMSO+27 mL media) was added.
[Cell Lysis and Protein Quantification] Lysis buffer was prepared as follows: […] of RIPA buffer (Biosesang, RC2038-050-00)+0.5 mM PMSF (SIGMA, P7626)+1× Protease/Phosphatase Inhibitor (Cell signaling, 5872S) per well was added and placed on ice for 30 minutes (vortexing at 0 and 30 minutes, respectively). After sonication process (10 seconds pulse, 30 seconds rest, 5 cycles, 70% amplification), centrifugation (15000 g, 15 min, 4° C.) was performed, and then only the supernatant was taken and transferred to a new microtube. The sample was diluted ¼ with RIPA buffer in a 96-well plate, and mixed with A:B=50:1 of the BCA Protein Assay Kit (iNtRON, 21071). […] each of the mixture was left at 37° C. for 30 minutes, and cooled for 10 minutes. Then, absorbance was measured at 562 nm with the SYNERGY H1 microplate reader from BioTek. After making a sample by quantifying the protein with the measured value, boiling was performed at 70° C. for 10 minutes. At this time, the sample buffer used was a mixture of NuPAGE or Bolt 4× sample buffer (Invitrogen) and each 10× sample reducing agent according to the gel to be used, and RIPA buffer was used for protein dilution.
[Western blotting detection method] The same amount of sample was loaded on NuPAGE or Bolt Bis-tris 4-12% gradient gel and run (200 V, 35 minutes). It was transferred to 0.2 mm NC membrane with Trans-blot Turbo (BIO-RAD) (1.3 A constant, 25 V limit, 15 minutes). Blocking was performed at room temperature for 1 hour with Skim milk or Intercept Blocking Buffer (LI-COR, 927-60001):0.1% TBST=1:1. Anti SHPTP2 Mouse (1:500 in 5% Skim milk/TBST, size: 70 kDa, Santacruz sc-7384) was incubated overnight at 4° C., and Anti GAPDH Rabbit (1:2,000 in 5% BSA/0.2% TBST, size: 37 kDa, CST #2118) was incubated at room temperature for 1 hour 30 minutes or 3 hours. It was washed 3 times for 5 minutes each with 0.2% TBST washing buffer. Secondary antibody Anti-Rabbit IgG (1:5,000 in 5% Skim milk/0.2% TBST, CST), and IRDye® 680RD Goat anti-Rabbit IgG Secondary Antibody (1:10,000 in 5% BSA/0.2% TBST, LI-COR 926-68071) were incubated for 45 minutes on a rocker at room temperature. It was washed 5 times for 5 minutes each with 0.2% TBST washing buffer and detected with LI-COR's Odyssey. At this time, SHPTP2 was detected using SuperSignal West Pico PLUS Chemiluminescent Substrate, and house-keeping genes were also detected.
In the results of Table 4 below, Compounds 1-7, 13-19, and 21-26 are results in KYSE-520 cells, and the others are results in MV-4-11 cells.

## Cc1ncsc1-c1ccc(CNC(=O)[C@@H]2C[C@@H](O)CN2C(=O)[C@@H](NC(=O)C2(F)CC2)C(C)(C)C)c(OCCCCCC(=O)N2CCC(CCCC(=O)Nc3cccc(Sc4cnc(N5CCC(C)(CN)CC5)cn4)c3Cl)CC2)c1 [Example 26, (2S,4R)—N-(2-((6-(4-(4-((3-((5-(4-(aminomethyl)-4-methylpiperidin-1-yl)pyrazin-2-yl)thio)-2-chlorophenyl)amino)-4-oxobutyl)piperidin-1-yl)-6-oxohexyl)oxy)-4-(4-methylthiazol-5-yl)benzyl)-1-((S)-2-(1-fluorocyclopropane-1-carboxamido)-3,3-dimethylbutanoyl)-4-hydroxypyrrolidine-2-carboxamide]
  SHP2 degradation (%) 10 nM: 40.6%
  SHP2 degradation (%) 100 nM: 83.2%
  SHP2 degradation (%) 1000 nM: 95.0%

## Cc1ncsc1-c1ccc(CNC(=O)[C@@H]2C[C@@H](O)CN2C(=O)[C@@H](NC(=O)C2(F)CC2)C(C)(C)C)c(OCCCN2CCC(CCC(=O)Nc3cccc(Sc4cnc(N5CCC(C)(CN)CC5)cn4)c3Cl)CC2)c1 [Example 14, (2S,4R)—N-(2-(3-(4-(3-((3-((5-(4-(aminomethyl)-4-methylpiperidin-1-yl)pyrazin-2-yl)thio)-2-chlorophenyl)amino)-3-oxopropyl)piperidin-1-yl)propoxy)-4-(4-methylthiazol-5-yl)benzyl)-1-((S)-2-(1-fluorocyclopropane-1-carboxamido)-3,3-dimethylbutanoyl)-4-hydroxypyrrolidine-2-carboxamide]
  SHP2 degradation (%) 10 nM: 14.2%
  SHP2 degradation (%) 100 nM: 60.1%
  SHP2 degradation (%) 1000 nM: 69.1%

## Cc1ncsc1-c1ccc(CNC(=O)[C@@H]2C[C@@H](O)CN2C(=O)[C@@H](NC(=O)C2(F)CC2)C(C)(C)C)c(OCCCCN2CCC(C(=O)Nc3cccc(Sc4cnc(N5CCC(C)(CN)CC5)cn4)c3Cl)CC2)c1 [Example 2, N-(3-((5-(4-(aminomethyl)-4-methylpiperidin-1-yl)pyrazin-2-yl)thio)-2-chlorophenyl)-1-(4-(2-(((2S,4R)-1-((S)-2-(1-fluorocyclopropane-1-carboxamido)-3,3-dimethylbutanoyl)-4-hydroxypyrrolidine-2-carboxamido)methyl)-5-(4-methylthiazol-5-yl)phenoxy)butyl)piperidine-4-carboxamide]
  SHP2 degradation (%) 10 nM: 23.3%
  SHP2 degradation (%) 100 nM: 81.8%
  SHP2 degradation (%) 1000 nM: 94.3%

## Cc1ncsc1-c1ccc(CNC(=O)[C@@H]2C[C@@H](O)CN2C(=O)[C@@H](NC(=O)C2(F)CC2)C(C)(C)C)c(OCCCC(=O)N2CCC(CC(=O)Nc3cccc(Sc4cnc(N5CCC(C)(CN)CC5)cn4)c3Cl)CC2)c1 [Example 23, (2S,4R)—N-(2-(4-(4-(2-((3-((5-(4-(aminomethyl)-4-methylpiperidin-1-yl)pyrazin-2-yl)thio)-2-chlorophenyl)amino)-2-oxoethyl)piperidin-1-yl)-4-oxobutoxy)-4-(4-methylthiazol-5-yl)benzyl)-1-((S)-2-(1-fluorocyclopropane-1-carboxamido)-3,3-dimethylbutanoyl)-4-hydroxypyrrolidine-2-carboxamide]
  SHP2 degradation (%) 10 nM: 8.4%
  SHP2 degradation (%) 100 nM: 44.3%
  SHP2 degradation (%) 1000 nM: 64.2%

## Cc1ncsc1-c1ccc(CNC(=O)[C@@H]2C[C@@H](O)CN2C(=O)[C@@H](NC(=O)C2(F)CC2)C(C)(C)C)c(OCCN2CCC(CC(=O)Nc3cccc(Sc4cnc(N5CCC(C)(CN)CC5)cn4)c3Cl)CC2)c1 [Example 5, (2S,4R)—N-(2-(2-(4-(2-((3-((5-(4-(aminomethyl)-4-methylpiperidin-1-yl)pyrazin-2-yl)thio)-2-chlorophenyl)amino)-2-oxoethyl)piperidin-1-yl)ethoxy)-4-(4-methylthiazol-5-yl)benzyl)-1-((S)-2-(1-fluorocyclopropane-1-carboxamido)-3,3-dimethylbutanoyl)-4-hydroxypyrrolidine-2-carboxamide]
  SHP2 degradation (%) 10 nM: 3.4%
  SHP2 degradation (%) 100 nM: 56.7%
  SHP2 degradation (%) 1000 nM: 90.6%

## Cc1ncsc1-c1ccc(CNC(=O)[C@@H]2C[C@@H](O)CN2C(=O)[C@@H](NC(=O)C2(F)CC2)C(C)(C)C)c(OCCCN2CCC(CC(=O)Nc3cccc(Sc4cnc(N5CCC(C)(CN)CC5)cn4)c3Cl)CC2)c1 [Example 6, (2S,4R)—N-(2-(3-(4-(2-((3-((5-(4-(aminomethyl)-4-methylpiperidin-1-yl)pyrazin-2-yl)thio)-2-chlorophenyl)amino)-2-oxoethyl)piperidin-1-yl)propoxy)-4-(4-methylthiazol-5-yl)benzyl)-1-((S)-2-(1-fluorocyclopropane-1-carboxamido)-3,3-dimethylbutanoyl)-4-hydroxypyrrolidine-2-carboxamide]
  SHP2 degradation (%) 10 nM: 19.5%
  SHP2 degradation (%) 100 nM: 82.4%
  SHP2 degradation (%) 1000 nM: 95.0%

## Cc1ncsc1-c1ccc(CNC(=O)[C@@H]2C[C@@H](O)CN2C(=O)[C@@H](NC(=O)C2(F)CC2)C(C)(C)C)c(OCCCC(=O)N2CCC(C(=O)Nc3cccc(Sc4cnc(N5CCC(C)(CN)CC5)cn4)c3Cl)CC2)c1 [Example 21, N-(3-((5-(4-(aminomethyl)-4-methylpiperidin-1-yl)pyrazin-2-yl)thio)-2-chlorophenyl)-1-(4-(2-(((2S,4R)-1-((S)-2-(1-fluorocyclopropane-1-carboxamido)-3,3-dimethylbutanoyl)-4-hydroxypyrrolidine-2-carboxamido)methyl)-5-(4-methylthiazol-5-yl)phenoxy)butanoyl)piperidine-4-carboxamide]
  SHP2 degradation (%) 10 nM: 11.7%
  SHP2 degradation (%) 100 nM: 51.7%
  SHP2 degradation (%) 1000 nM: 66.6%

## Cc1ncsc1-c1ccc(CNC(=O)[C@@H]2C[C@@H](O)CN2C(=O)[C@@H](NC(=O)C2(F)CC2)C(C)(C)C)c(OCCCCN2CCC(CCC(=O)Nc3cccc(Sc4cnc(N5CCC(C)(CN)CC5)cn4)c3Cl)CC2)c1 [Example 15, (2S,4R)—N-(2-(4-(4-(3-((3-((5-(4-(aminomethyl)-4-methylpiperidin-1-yl)pyrazin-2-yl)thio)-2-chlorophenyl)amino)-3-oxopropyl)piperidin-1-yl)butoxy)-4-(4-methylthiazol-5-yl)benzyl)-1-((S)-2-(1-fluorocyclopropane-1-carboxamido)-3,3-dimethylbutanoyl)-4-hydroxypyrrolidine-2-carboxamide]
  SHP2 degradation (%) 10 nM: 21.7%
  SHP2 degradation (%) 100 nM: 58.3%
  SHP2 degradation (%) 1000 nM: 74.6%
